Laboratory results from ChEMBL document CHEMBL1149454, “Synthesis and in vitro antitubercular activity of some 1-[(4-sub)phenyl]-3-(4-{1-[(pyridine-4-carbonyl)hydrazono]ethyl}phenyl)thiourea” (Bioorg Med Chem Lett, 2006).
≈ marks a conversion by molar mass, not a printed value.

Key:
[1] = test system: Mycobacterium tuberculosis; experiment: Antibacterial activity against Mycobacterium tuberculosis H37Rv; assay type: functional
[2] = test system: Vero; experiment: Inhibition of mammalian Vero cell viability at 6.25 and 62.5 ug/ml by MTT assay; assay type: functional, cell-based; conditions: Chlorocebus sabaeus
[3] = test system: Vero; experiment: Selectivity index as ratio of IC50 over MIC; assay type: functional

SMILES | MIC [1] [µM] | IC50 [2] [µM] | Selectivity index [3]
C/C(=N/NC(=O)c1ccncc1)c1ccc(N/C(S)=N/c2ccccc2)cc1 | 4 (≈ 1.56 µg/mL) | 160 | –
NNC(=O)c1ccncc1 [ISONIAZID] | 1.46 (≈ 0.2 µg/mL) | > 455 | –
C/C(=N/NC(=O)c1ccncc1)c1ccc(N/C(S)=N/c2ccc(F)cc2)cc1 | 0.49 (≈ 0.2 µg/mL) | > 153 | >312
CCOc1ccc(N/C(S)=N\c2ccc(/C(C)=N\NC(=O)c3ccncc3)cc2)cc1 | 0.89 (≈ 0.386 µg/mL) | 144 | –
C/C(=N/NC(=O)c1ccncc1)c1ccc(N/C(S)=N/c2ccc(Br)cc2)cc1 | 1.66 (≈ 0.778 µg/mL) | 133 | –
COc1ccc(N/C(S)=N\c2ccc(/C(C)=N\NC(=O)c3ccncc3)cc2)cc1 | 0.47 (≈ 0.197 µg/mL) | > 149 | –
C/C(=N/NC(=O)c1ccncc1)c1ccc(N/C(S)=N/c2ccc(C)cc2)cc1 | 1.93 (≈ 0.779 µg/mL) | 155 | –
